Reference: ChEMBL document CHEMBL4002566, “S-substituted 3,5-dinitrophenyl 1,3,4-oxadiazole-2-thiols and tetrazole-5-thiols as highly efficient antitubercular agents” (Eur J Med Chem, 2017)

Key:
[1] = tested on: Aspergillus fumigatus; assay: Antifungal activity against Aspergillus fumigatus 231 after 48 hrs by broth microdilution method; format: functional; conditions: Aspergillus fumigatus, 231, 48 h
[2] = tested on: Staphylococcus aureus; assay: Antibacterial activity against methicillin-resistant Staphylococcus aureus HK5996/08 after 48 hrs by broth microdilution method; format: functional; conditions: HK5996/08, 48 h
[3] = tested on: Candida tropicalis; assay: Antifungal activity against Candida tropicalis 156 after 48 hrs by broth microdilution method; format: functional; conditions: Candida tropicalis, 156, 48 h
[4] = tested on: Klebsiella pneumoniae; assay: Antibacterial activity against Klebsiella pneumoniae HK11750/08 after 48 hrs by broth microdilution method; format: functional; conditions: HK11750/08, 48 h
[5] = tested on: Klebsiella pneumoniae; assay: Antibacterial activity against Klebsiella pneumoniae HK11750/08 after 24 hrs by broth microdilution method; format: functional; conditions: HK11750/08, 24 h
[6] = tested on: Pseudomonas aeruginosa; assay: Antibacterial activity against Pseudomonas aeruginosa ATCC 9027 after 48 hrs by broth microdilution method; format: functional; conditions: ATCC 9027, 48 h
[7] = tested on: Mycobacterium tuberculosis; assay: Antimycobacterial activity against Mycobacterium tuberculosis CNCTC My 331/88 after 21 days by micromethod; format: functional; conditions: CNCTC My 331/88, 504 h
[8] = tested on: Staphylococcus epidermidis; assay: Antibacterial activity against Staphylococcus epidermidis HK6996/08 after 24 hrs by broth microdilution method; format: functional; conditions: HK6996/08, 24 h
[9] = tested on: Trichophyton mentagrophytes; assay: Antifungal activity against Trichophyton mentagrophytes 445 after 120 hrs by broth microdilution method; format: functional; conditions: Trichophyton mentagrophytes, 445, 120 h
[10] = tested on: Staphylococcus epidermidis; assay: Antibacterial activity against Staphylococcus epidermidis HK6996/08 after 48 hrs by broth microdilution method; format: functional; conditions: HK6996/08, 48 h
[11] = tested on: Nakaseomyces glabratus; assay: Antifungal activity against Candida glabrata 20/I after 48 hrs by broth microdilution method; format: functional
[12] = tested on: Nakaseomyces glabratus; assay: Antifungal activity against Candida glabrata 20/I after 24 hrs by broth microdilution method; format: functional
[13] = Cytotoxicity against human A431 cells assessed as cell viability at 30 uM after 48 hrs by MTS assay relative to control; format: cell-based, A-431; conditions: read-out: Activity
[14] = tested on: Trichophyton mentagrophytes; assay: Antifungal activity against Trichophyton mentagrophytes 445 after 72 hrs by broth microdilution method; format: functional; conditions: Trichophyton mentagrophytes, 445, 72 h
[15] = tested on: A-431; assay: Cytotoxicity against human A431 cells assessed as cell viability after 48 hrs by MTS assay; format: cell-based; conditions: A-431, 48 h
[16] = tested on: Candida tropicalis; assay: Antifungal activity against Candida tropicalis 156 after 24 hrs by broth microdilution method; format: functional; conditions: Candida tropicalis, 156, 24 h
[17] = tested on: Mycobacterium kansasii; assay: Antimycobacterial activity against Mycobacterium kansasii CNCTC My 235/80 after 21 days by micromethod; format: functional; conditions: CNCTC My 235/80, 504 h
[18] = tested on: Klebsiella pneumoniae; assay: Antibacterial activity against extended spectrum beta-lactamase producing Klebsiella pneumoniae HK14368/08 after 48 hrs by broth microdilution method; format: functional; conditions: HK14368/08, 48 h
[19] = tested on: Klebsiella pneumoniae; assay: Antibacterial activity against extended spectrum beta-lactamase producing Klebsiella pneumoniae HK14368/08 after 24 hrs by broth microdilution method; format: functional; conditions: HK14368/08, 24 h
[20] = tested on: Lichtheimia corymbifera; assay: Antifungal activity against Absidia corymbifera 272 after 48 hrs by broth microdilution method; format: functional; conditions: Lichtheimia corymbifera, 272, 48 h
[21] = tested on: Escherichia coli; assay: Antibacterial activity against Escherichia coli ATCC 8739 after 24 hrs by broth microdilution method; format: functional; conditions: ATCC 8739, 24 h
[22] = tested on: MDCK; assay: Cytotoxicity against MDCK cells assessed as cell viability after 48 hrs by MTS assay; format: cell-based; conditions: Canis lupus familiaris
[23] = Cytotoxicity against MDCK cells assessed as cell viability at 30 uM after 48 hrs by MTS assay relative to control; format: cell-based, Canis lupus familiaris; conditions: dog, read-out: Activity
[24] = tested on: Enterococcus sp.; assay: Antibacterial activity against Enterococcus sp. HK14365/08 after 24 hrs by broth microdilution method; format: functional; conditions: HK14365/08, 24 h
[25] = tested on: Huh-7; assay: Cytotoxicity against human HuH7 cells assessed as cell viability after 48 hrs by MTS assay; format: cell-based; conditions: Huh-7, 48 h
[26] = tested on: Pichia kudriavzevii; assay: Antifungal activity against Candida krusei E28 after 24 hrs by broth microdilution method; format: functional; conditions: E28, 24 h
[27] = tested on: Trichosporon asahii; assay: Antifungal activity against Trichosporon asahii 1188 after 48 hrs by broth microdilution method; format: functional; conditions: Trichosporon asahii, 1188, 48 h
[28] = tested on: Aspergillus fumigatus; assay: Antifungal activity against Aspergillus fumigatus 231 after 24 hrs by broth microdilution method; format: functional; conditions: Aspergillus fumigatus, 231, 24 h
[29] = tested on: Candida albicans; assay: Antifungal activity against Candida albicans ATCC 44859 after 48 hrs by broth microdilution method; format: functional; conditions: ATCC 44859, 48 h
[30] = tested on: Pseudomonas aeruginosa; assay: Antibacterial activity against Pseudomonas aeruginosa ATCC 9027 after 24 hrs by broth microdilution method; format: functional; conditions: ATCC 9027, 24 h
[31] = tested on: Staphylococcus aureus; assay: Antibacterial activity against Staphylococcus aureus ATCC 6538 after 48 hrs by broth microdilution method; format: functional; conditions: ATCC 6538, 48 h
[32] = tested on: HepG2; assay: Cytotoxicity against human HepG2 cells assessed as cell viability after 48 hrs by MTS assay; format: cell-based; conditions: HepG2, 48 h
[33] = tested on: Mycobacterium kansasii; assay: Antimycobacterial activity against Mycobacterium kansasii 6509/96 clinical isolate after 21 days by micromethod; format: functional; conditions: 6509/96, 504 h
[34] = Selectivity index, ratio of IC50 for human HepG2 cells to MIC for Mycobacterium tuberculosis; format: toxicity; conditions: read-out: Selectivity Index
[35] = tested on: Mycobacterium kansasii; assay: Antimycobacterial activity against Mycobacterium kansasii 6509/96 clinical isolate after 7 days by micromethod; format: functional; conditions: 6509/96, 168 h
[36] = tested on: Escherichia coli; assay: Antibacterial activity against Escherichia coli ATCC 8739 after 48 hrs by broth microdilution method; format: functional; conditions: ATCC 8739, 48 h
[37] = tested on: Mycobacterium kansasii; assay: Antimycobacterial activity against Mycobacterium kansasii CNCTC My 235/80 after 7 days by micromethod; format: functional; conditions: CNCTC My 235/80, 168 h
[38] = Cytotoxicity against human HuH7 cells assessed as cell viability at 30 uM after 48 hrs by MTS assay relative to control; format: cell-based, Huh-7; conditions: read-out: Activity
[39] = tested on: Mycobacterium kansasii; assay: Antimycobacterial activity against Mycobacterium kansasii CNCTC My 235/80 after 14 days by micromethod; format: functional; conditions: CNCTC My 235/80, 336 h
[40] = tested on: Staphylococcus aureus; assay: Antibacterial activity against methicillin-resistant Staphylococcus aureus HK5996/08 after 24 hrs by broth microdilution method; format: functional; conditions: HK5996/08, 24 h
[41] = Cytotoxicity against human HepG2 cells assessed as cell viability at 30 uM after 48 hrs by MTS assay relative to control; format: cell-based; conditions: read-out: Activity
[42] = tested on: Lichtheimia corymbifera; assay: Antifungal activity against Absidia corymbifera 272 after 24 hrs by broth microdilution method; format: functional; conditions: Lichtheimia corymbifera, 272, 24 h
[43] = tested on: Pichia kudriavzevii; assay: Antifungal activity against Candida krusei E28 after 48 hrs by broth microdilution method; format: functional; conditions: E28, 48 h
[44] = tested on: Candida albicans; assay: Antifungal activity against Candida albicans ATCC 44859 after 24 hrs by broth microdilution method; format: functional; conditions: ATCC 44859, 24 h
[45] = tested on: Enterococcus sp.; assay: Antibacterial activity against Enterococcus sp. HK14365/08 after 48 hrs by broth microdilution method; format: functional; conditions: HK14365/08, 48 h
[46] = tested on: Mycobacterium kansasii; assay: Antimycobacterial activity against Mycobacterium kansasii 6509/96 clinical isolate after 14 days by micromethod; format: functional; conditions: 6509/96, 336 h
[47] = tested on: Trichosporon asahii; assay: Antifungal activity against Trichosporon asahii 1188 after 24 hrs by broth microdilution method; format: functional; conditions: Trichosporon asahii, 1188, 24 h
[48] = tested on: Mycobacterium tuberculosis; assay: Antimycobacterial activity against Mycobacterium tuberculosis CNCTC My 331/88 after 14 days by micromethod; format: functional; conditions: CNCTC My 331/88, 336 h
[49] = tested on: Staphylococcus aureus; assay: Antibacterial activity against Staphylococcus aureus ATCC 6538 after 24 hrs by broth microdilution method; format: functional; conditions: ATCC 6538, 24 h
[50] = tested on: Mycobacterium avium; assay: Antimycobacterial activity against Mycobacterium avium CNCTC My 330/88 after 14 days by micromethod; format: functional; conditions: CNCTC My 330/88, 336 h
[51] = tested on: Mycobacterium avium; assay: Antimycobacterial activity against Mycobacterium avium CNCTC My 330/88 after 21 days by micromethod; format: functional; conditions: CNCTC My 330/88, 504 h

O=[N+]([O-])c1cc(-c2nnc(SCc3ccc(Cl)cc3)o2)cc([N+](=O)[O-])c1
> 30 µM: IC50 [15] | IC50 [22] | IC50 [25] | IC50 [32]
100%: viability at 48 h, 30 µM [13]
> 500 µM: MIC [2] | MIC [4] | MIC [5] | MIC [6] | MIC [8] | MIC [10] | MIC [18] | MIC [19] | MIC [21] | MIC [24] | MIC [30] | MIC [31] | MIC [36] | MIC [40] | MIC [45] | MIC [49]
> 125 µM: MIC [1] | MIC [3] | MIC [9] | MIC [11] | MIC [12] | MIC [14] | MIC [16] | MIC [20] | MIC [26] | MIC [27] | MIC [28] | MIC [29] | MIC [42] | MIC [43] | MIC [44] | MIC [47]
110%: viability at 48 h, 30 µM [23]
126%: viability at 48 h, 30 µM [38] | viability at 48 h, 30 µM [41]
> 1000: selectivity ratio [34]
0.125 µM: MIC [17]
0.06 µM: MIC [7] | MIC [39]
0.03 µM: MIC [33] | MIC [35] | MIC [37] | MIC [46] | MIC [48]

O=[N+]([O-])c1cc(-n2nnnc2SCc2ccc(Cl)cc2)cc([N+](=O)[O-])c1
85%: viability at 48 h, 30 µM [23]
> 60: selectivity ratio [34]
74%: viability at 48 h, 30 µM [13]
> 500 µM: MIC [1] | MIC [3] | MIC [4] | MIC [5] | MIC [6] | MIC [9] | MIC [11] | MIC [12] | MIC [14] | MIC [16] | MIC [18] | MIC [19] | MIC [20] | MIC [21] | MIC [24] | MIC [26] | MIC [27] | MIC [28] | MIC [29] | MIC [30] | MIC [36] | MIC [42] | MIC [43] | MIC [44] | MIC [45] | MIC [47]
16 µM: MIC [51]
1 µM: MIC [33] | MIC [37] | MIC [46]
4 µM: MIC [17]
> 30 µM: IC50 [15] | IC50 [22] | IC50 [25] | IC50 [32]
0.5 µM: MIC [7] | MIC [35] | MIC [48]
2 µM: MIC [39]
134%: viability at 48 h, 30 µM [41]
500 µM: MIC [8] | MIC [10]
8 µM: MIC [50]
115%: viability at 48 h, 30 µM [38]
125 µM: MIC [2] | MIC [31] | MIC [40] | MIC [49]
